# Columns and labels:
# Assay in all cases: relative viability (nuclei count vs DMSO), 5 days (fraction); higher = more cells survive
# 201T = system: 201T
# Procedure, shortened: (§1)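 The day after seeding in 1536-well plates, lung cancer cell lines were treated by pin tool with a single drug, or with a fixed anchor-drug dose together with five library-drug doses (not always all listed) in √10 steps. After 5 days, a combined fix-and-stain solution (final 0.05% Triton X-100, 1% formaldehyde, 1 ug/ml Hoechst) was added. Nuclei counted on 4× images gave relative viability as treated counts over vehicle counts, reported as the median of duplicate plates.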
# ABC-1 = system: ABC-1
# Procedure, shortened: as §1
# EKVX = system: EKVX
# Procedure, shortened: as §1
# EMC-BAC-2 = system: EMC-BAC-2
# Procedure, shortened: as §1
# HCC-44 = system: HCC-44
# Procedure, shortened: as §1
# HCC-78 = system: HCC-78
# Procedure, shortened: as §1
# HOP-62 = system: HOP-62
# Procedure, shortened: as §1
# LC-2-ad = system: LC-2-ad
# Procedure, shortened: as §1
# LK-2 = system: LK-2
# Procedure, shortened: as §1
# NCI-H1355 = system: NCI-H1355
# Procedure, shortened: as §1
# NCI-H2009 = system: NCI-H2009
# Procedure, shortened: as §1
# NCI-H2228 = system: NCI-H2228
# Procedure, shortened: as §1
# NCI-H2347 = system: NCI-H2347
# Procedure, shortened: as §1
# NCI-H3122 = system: NCI-H3122
# Procedure, shortened: as §1
# NCI-H838 = system: NCI-H838
# Procedure, shortened: as §1
# PC-14 = system: PC-14
# Procedure, shortened: as §1
# RERF-LC-KJ = system: RERF-LC-KJ
# Procedure, shortened: as §1
# SK-MES-1 = system: SK-MES-1
# Procedure, shortened: as §1
# SW 1573 = system: SW 1573
# Procedure, shortened: as §1
# UMC-11 = system: UMC-11
# Procedure, shortened: as §1
smiles,measurement,setting,value
COCC1(CO)C(=O)C2CCN1CC2 (centres undefined) [PRIMA-1MET] + C[C@]1(O)C[C@@H](c2nc(-c3ccc4ccc(-c5ccccc5)nc4c3)c3c(N)nccn32)C1 [Linsitinib] (partner 1 µM),relative viability,201T; first compound 0.2 µM,1.11
same,relative viability,201T; first compound 0.6325 µM,1.05
same,relative viability,201T; first compound 2 µM,0.934
same,relative viability,201T; first compound 6.325 µM,1.11
same,relative viability,201T; first compound 20 µM,1
same,relative viability,ABC-1; first compound 0.2 µM,0.899
same,relative viability,ABC-1; first compound 0.6325 µM,0.958
same,relative viability,ABC-1; first compound 2 µM,0.89
same,relative viability,ABC-1; first compound 6.325 µM,0.833
same,relative viability,ABC-1; first compound 20 µM,0.519
same,relative viability,EKVX; first compound 0.2 µM,0.999
same,relative viability,EKVX; first compound 0.6325 µM,0.912
same,relative viability,EKVX; first compound 2 µM,0.707
same,relative viability,EKVX; first compound 6.325 µM,1.03
same,relative viability,EKVX; first compound 20 µM,0.804
same,relative viability,EMC-BAC-2; first compound 0.2 µM,0.843
same,relative viability,EMC-BAC-2; first compound 0.6325 µM,0.822
same,relative viability,EMC-BAC-2; first compound 2 µM,0.784
same,relative viability,EMC-BAC-2; first compound 6.325 µM,0.821
same,relative viability,EMC-BAC-2; first compound 20 µM,0.817
same,relative viability,HCC-44; first compound 0.2 µM,0.746
same,relative viability,HCC-44; first compound 0.6325 µM,0.528
same,relative viability,HCC-44; first compound 2 µM,0.673
same,relative viability,HCC-44; first compound 6.325 µM,0.706
same,relative viability,HCC-44; first compound 20 µM,0.625
same,relative viability,HCC-78; first compound 0.2 µM,0.658
same,relative viability,HCC-78; first compound 0.6325 µM,0.556
same,relative viability,HCC-78; first compound 6.325 µM,0.498
same,relative viability,HCC-78; first compound 20 µM,0.0559
same,relative viability,HOP-62; first compound 0.2 µM,1.08
same,relative viability,HOP-62; first compound 0.6325 µM,0.976
same,relative viability,HOP-62; first compound 2 µM,0.9
same,relative viability,HOP-62; first compound 6.325 µM,0.987
same,relative viability,HOP-62; first compound 20 µM,0.746
same,relative viability,LC-2-ad; first compound 0.2 µM,0.967
same,relative viability,LC-2-ad; first compound 0.6325 µM,0.843
same,relative viability,LC-2-ad; first compound 2 µM,0.754
same,relative viability,LC-2-ad; first compound 6.325 µM,0.858
same,relative viability,LC-2-ad; first compound 20 µM,0.598
same,relative viability,LK-2; first compound 0.2 µM,0.624
same,relative viability,LK-2; first compound 0.6325 µM,0.554
same,relative viability,LK-2; first compound 2 µM,0.237
same,relative viability,LK-2; first compound 6.325 µM,0.224
same,relative viability,LK-2; first compound 20 µM,0.103
same,relative viability,NCI-H1355; first compound 0.2 µM,0.998
same,relative viability,NCI-H1355; first compound 0.6325 µM,0.796
same,relative viability,NCI-H1355; first compound 2 µM,0.68
same,relative viability,NCI-H1355; first compound 6.325 µM,0.81
same,relative viability,NCI-H1355; first compound 20 µM,0.76
same,relative viability,NCI-H2009; first compound 0.2 µM,1.17
same,relative viability,NCI-H2009; first compound 0.6325 µM,1.09
same,relative viability,NCI-H2009; first compound 2 µM,1.22
same,relative viability,NCI-H2009; first compound 6.325 µM,1.16
same,relative viability,NCI-H2009; first compound 20 µM,0.693
same,relative viability,NCI-H2228; first compound 0.2 µM,0.735
same,relative viability,NCI-H2228; first compound 0.6325 µM,0.552
same,relative viability,NCI-H2228; first compound 2 µM,0.602
same,relative viability,NCI-H2228; first compound 6.325 µM,0.61
same,relative viability,NCI-H2228; first compound 20 µM,0.046
same,relative viability,NCI-H2347; first compound 0.2 µM,1.02
same,relative viability,NCI-H2347; first compound 0.6325 µM,0.847
same,relative viability,NCI-H2347; first compound 2 µM,0.697
same,relative viability,NCI-H2347; first compound 6.325 µM,0.995
same,relative viability,NCI-H2347; first compound 20 µM,0.934
same,relative viability,NCI-H3122; first compound 0.2 µM,0.853
same,relative viability,NCI-H3122; first compound 0.6325 µM,0.996
same,relative viability,NCI-H3122; first compound 2 µM,1.04
same,relative viability,NCI-H3122; first compound 6.325 µM,0.945
same,relative viability,NCI-H3122; first compound 20 µM,1.03
same,relative viability,NCI-H838; first compound 0.2 µM,1.21
same,relative viability,NCI-H838; first compound 0.6325 µM,1.02
same,relative viability,NCI-H838; first compound 2 µM,1.04
same,relative viability,NCI-H838; first compound 6.325 µM,1.14
same,relative viability,NCI-H838; first compound 20 µM,1.06
same,relative viability,PC-14; first compound 0.2 µM,0.918
same,relative viability,PC-14; first compound 0.6325 µM,0.978
same,relative viability,PC-14; first compound 2 µM,0.923
same,relative viability,PC-14; first compound 6.325 µM,0.987
same,relative viability,PC-14; first compound 20 µM,0.927
same,relative viability,RERF-LC-KJ; first compound 0.2 µM,0.961
same,relative viability,RERF-LC-KJ; first compound 0.6325 µM,0.955
same,relative viability,RERF-LC-KJ; first compound 2 µM,0.832
same,relative viability,RERF-LC-KJ; first compound 6.325 µM,0.922
same,relative viability,RERF-LC-KJ; first compound 20 µM,0.875
same,relative viability,SK-MES-1; first compound 0.2 µM,1.13
same,relative viability,SK-MES-1; first compound 0.6325 µM,1.04
same,relative viability,SK-MES-1; first compound 2 µM,1.02
same,relative viability,SK-MES-1; first compound 6.325 µM,1.05
same,relative viability,SK-MES-1; first compound 20 µM,1.11
same,relative viability,SW 1573; first compound 0.2 µM,0.779
same,relative viability,SW 1573; first compound 0.6325 µM,0.796
same,relative viability,SW 1573; first compound 2 µM,0.875
same,relative viability,SW 1573; first compound 6.325 µM,0.456
same,relative viability,SW 1573; first compound 20 µM,0.0414
same,relative viability,UMC-11; first compound 0.2 µM,1.11
same,relative viability,UMC-11; first compound 0.6325 µM,0.887
same,relative viability,UMC-11; first compound 2 µM,1.04
same,relative viability,UMC-11; first compound 6.325 µM,0.97
same,relative viability,UMC-11; first compound 20 µM,0.94
